Marks after values point to notes of the source that are not given here.
What was measured:
Melatonin = Melatonin level in brain, experimental sleep deprivation stress model; type: in vivo, rats of Charles foster strain; settings: 7 days sleep deprivation stress + drug, 10 rats
Experimental: In this group the sleep deprivation stress was introduced along with the hydro-alcoholic extract of three plants Nyctanthes arbor-tristis, Ocimum tenuiflorum and Hippophae salicifolia. […] On 7th day (after two hours of administration of test drug) different parts of the rat's brain were dissected and 5-HT, melatonin GABA. glutamate and histamine were measured. […]

GABA [1] = assay: GABA content in the brain following experimental sleep deprivation stress; type: in vivo, rats of Charles foster strain; settings: 7 days sleep deprivation stress + drug, 10 rats
Excerpt: (§1) The study is divided into four groups, 10 rats of Charles foster strain were kept in each study group.
(§2) In control group 10 rats were selected and kept on normal saline for 7 days. On 7th days the animals were sacrificed and various biogenic amines like 5-HT GABA & glutamate, melatonin and MAO were estimated. After dissection of rat's brain the biogenic amines were estimated in thalamus, hypothalamus and cortex.
(§3) In this group sleep deprivation stress for 7 days was given to all the 10 rats. After 7 days the rat's brain were dissected and thalamus, hypo-thalamus and cortex were separated for the measurement of brain biogenic amines.
(§4) In this group the sleep deprivation stress was introduced along with the hydro-alcoholic extract of three plants Nyctanthes arbor-tristis, Ocimum tenuiflorum and Hippophae salicifolia. The drug Nyctanthes arbor-tristis (100 mg/kg bw./day), Ocimum tenuiflorum (50 mg/kg bw./day), Hippophae salicifolia (50 mg/kg bw./day) was given in combined form to all the 10 rats along with sleep deprivation stress. On 7th day (after two hours of administration of test drug) different parts of the rat's brain were dissected and 5-HT, melatonin GABA. glutamate and histamine were measured.
(§5) On 7th days the animals were sacrifice and brain biogenic amines were estimated in different parts of rat's brain.
(§6) The value obtained were compared with each other group (Normal vs sleep deprivation stress and sleep deprivation stress vs sleep deprivation stress+test formulation and sleep deprivation stress vs modern drug treatment group. Apart from initial at 7 day before sacrificing the animals circulating biogenic amines were also measured in all the three groups.

Glutamate [2] = assay: Glutamate level in brain following experimental sleep deprivation stress; type: in vivo, rats of Charles foster strain; settings: 7 days sleep deprivation stress + drug, 10 rats
Excerpt: as §1, §2, §3, §4, §5, §6

GABA [3] = assay: Circulating GABA following experimental sleep deprivation stress; type: in vivo, rats of Charles foster strain; settings: 7 days sleep deprivation stress + drug, 10 rats
Experimental: as §1, §4, §5, §6

Glutamate [4] = assay: Circulating glutamate following experimental sleep deprivation stress; type: in vivo, rats of Charles foster strain; settings: 7 days sleep deprivation stress + drug, 10 rats
Experimental: as §1, §4, §5, §6

MAO = assay: Circulating MAO following experimental sleep deprivation stress; type: in vivo, rats of Charles foster strain; settings: 7 days sleep deprivation stress + drug, 10 rats
Experimental: as §1, §4, §5, §6

Histaminase = assay: Circulating histaminase following experimental sleep deprivation stress; type: in vivo, rats of Charles foster strain; settings: 7 days sleep deprivation stress + drug, 10 rats
Experimental: as §1, §4, §5, §6

[5] = tested on: mild to moderate depression; assay: Clinical symptomatology (in percent), clinical trial; type: in vivo, human
Experimental: (§7) In the present study 99 cases between the age group of 20 to 60 years presenting the symptoms of mild to moderate depression were selected for clinical trial of test formulation containing extract of Nyctanthes arbor-tristis, Ocimum tenuiflorum and Hippophae salicifolia. The subjects were advised to take test formulation twice in a day in two divided doses (475 mg morning and 475 mg in the evening). The level of mood was measured by Major Depression Inventory (MDI) developed by Olsen L R et al (2003), the fatigue and psychomotor performance was measured by Mental Fatigue Apparatus and Rotary Pursuit Task. These tests and test battery are recommended by Gupta and Dubey (1994) for the scientific and objective assessment in the area of drug development. The behavioral pattern was repeatedly assessed at the continuous interval of one month for six months.

minor depressive cases [6] = assay: Mental fatigue level (Mental Fatigue Apparatus), clinical trial; type: in vivo, human
Experimental: as §7

minor depressive cases [7] = assay: Rotatory pursuit task (psychomotor coordination), clinical trial; type: in vivo, human
Experimental: as §7

[8] = tested on: depressive disorder cases; assay: Anxiety level (score), clinical trial; type: in vivo, human
Experimental: as §7

[9] = tested on: depressive disorder cases; assay: Mental fatigue (Time), clinical trial; type: in vivo, human
Experimental: as §7

depression patients = assay: Attention span (score), clinical trial; type: in vivo, human
Experimental: as §7

GABA [10] = assay: GABA level in depression cases; type: in vivo, human
Experimental: as §7

Glutamate [11] = assay: Glutamate level in depression cases; type: in vivo, human
Experimental: as §7

Platelet MAO = Platelet MAO activity in depressive disorder cases; type: in vivo, human
Experimental: as §7

Glutamate [12] = assay: Column headed Glutamate (nmol/mg/hr) in platelet MAO table, depressive disorder cases; type: in vivo, human; settings: After 6 months; clinical Table 8
Excerpt: (§8) In the present study 99 cases between the age group of 20 to 60 years presenting the symptoms of mild to moderate depression were selected for clinical trial of test formulation containing extract of Nyctanthes arbor-tristis, Ocimum tenuiflorum and Hippophae salicifolia. […] The behavioral pattern was repeatedly assessed at the continuous interval of one month for six months.

Epinephrine = Epinephrine level in depressive cases; type: in vivo, human; settings: Initial
Excerpt: as §8

IL-1 β = assay: Interleukin-1 β concentration in mild to moderate depressive patients; type: in vivo, human
Experimental: as §7

TNF-α = TNF-α in mild to moderate depressive patients; type: in vivo, human
Experimental: as §7

DHA = DHA content in mild to moderate depressive patients; type: in vivo, human
Experimental: as §7

depression cases [13] = assay: Occipito frontalis muscle action potential in depression cases; type: in vivo, human
Experimental: as §7

depression cases [14] = assay: Delta wave in depression cases; type: in vivo, human
Experimental: as §7

Neuro-peptide-γ = Neuro-peptide-γ content in depressed patients; type: in vivo, human
depressive patients = assay: Sleep pattern by polysomnographic studies in depressive patients; type: in vivo, human
Experimental: as §7
In control series (Sertraline treated) all the investigations were repeated and compared with the treated group.
There is an increase in DHA content after oral administration of test formulation for 6 months (Table-12). […] Neuro-peptide-γ is the 36-amino acid which affects anxiety, stress, pain, circadian rhythm and also associated various psychiatric disorders particularly depression of varying degree. […] The effect of test formulation on sleep pattern measured by recording on polysomnographic studies indicated improvement in sleep period, total sleep, sleep latency and various stages of sleep. Though none of the cases could achieve the stage four. The results obtained in the test formulation treatment group were compared with the conventional drug treated group and exerted significant difference when the conventional treated group was compared with the test formulation treated group (Table-16-17). The drug was found safe and effective after 6 months of continuous oral administration to depressed patients.

CNC1=Nc2ccc(Cl)cc2C(c2ccccc2)=[N+]([O-])C1 [Librium]
Melatonin, Hypothalamus (Melatonin; hypothalamus): 7.80 ± 1.02 μg/gm in wet tissue
Melatonin, Thalamus (Melatonin; thalamus): 5.95 ± 1.85 μg/gm in wet tissue
GABA, Cortex (GABA [1]; cortex): 2.62 ± 0.59 μmol/gm in wet tissue
GABA, Hypothalamus (GABA [1]; hypothalamus): 4.68 ± 1.02 μmol/gm in wet tissue
GABA, Thalamus (GABA [1]; thalamus): 3.91 ± 0.58 μmol/gm in wet tissue
Glutamate, Cortex (Glutamate [2]; cortex): 13.97 ± 2.11 μmol/gm in wet tissue
Glutamate, Hypothalamus (Glutamate [2]; hypothalamus): 12.66 ± 3.06 μmol/gm in wet tissue
Glutamate, Thalamus (Glutamate [2]; thalamus): 11.64 ± 3.01 μmol/gm in wet tissue
GABA (circulating) (GABA [3]): 1.02 ± 0.18 µmol/mL
Glutamate (circulating) (Glutamate [4]): 1.11 ± 0.10 µmol/mL
MAO (circulating) (MAO): 4.72 ± 0.89 nmol/m//hrs.
Histaminase (circulating) (Histaminase): 35.46 ± 4.95 µg/mL

CN[C@H]1CC[C@@H](c2ccc(Cl)c(Cl)c2)c2ccccc21 [Sertraline]
Early fatiguability ([5]; After 6 months): 91.12* percent
Lack of interest ([5]; After 6 months): 92.20* percent
Pessimistic thinking ([5]; After 6 months): 95.86* percent
Poor appetite ([5]; After 6 months): 50.03* percent
Poor concentration ([5]; After 6 months): 86.02* percent
Poor sleep ([5]; After 6 months): 79.41* percent
Psychomotor retardation ([5]; After 6 months): 78.09* percent
Weight loss ([5]; After 6 months): 40.32* percent
Early fatiguability ([5]; Initial): 98.01%
Lack of interest ([5]; Initial): 97.82%
Pessimistic thinking ([5]; Initial): 96.27%
Poor appetite ([5]; Initial): 58.89%
Poor concentration ([5]; Initial): 88.41%
Poor sleep ([5]; Initial): 98.04%
Psychomotor retardation ([5]; Initial): 74.66%
Weight loss ([5]; Initial): 42.01%
Mental fatigue level (minor depressive cases [6]; After 2 months): 19.68 Hz
Mental fatigue level (minor depressive cases [6]; After 4 months): 19.02 Hz
Mental fatigue level (minor depressive cases [6]; After 6 months): 18.45 Hz
Mental fatigue level (minor depressive cases [6]; Initial): 18.22 Hz
Rotatory pursuit task (minor depressive cases [7]; After 2 months): 28.03 Hz
Rotatory pursuit task (minor depressive cases [7]; After 4 months): 27.47 Hz
Rotatory pursuit task (minor depressive cases [7]; After 6 months): 26.52 Hz
Rotatory pursuit task (minor depressive cases [7]; Initial): 28.39 Hz
Anxiety level ([8]; After 6 months): 58.5 score
Anxiety level ([8]; Initial): 56.5 score
Mental fatigue (Time) ([9]; After 6 month): 90.3
Mental fatigue (Time) ([9]; Initial): 94.5
Attention span (depression patients; After 6 months): 9.32 Score
Attention span (depression patients; Initial): 10.49 Score
GABA (GABA [10]; After 6 months): 1.410 µmol/mL
GABA (GABA [10]; Initial): 1.070 µmol/mL
Glutamate (Glutamate [11]; After 6 months): 0.385 µmol/mL
Glutamate (Glutamate [11]; Initial): 0.419 µmol/mL
Platelet MAO (Platelet MAO; After 6 months): 5.98 nmol/mL/h
Platelet MAO (Platelet MAO; Initial): 5.04 nmol/mL/h
Glutamate (Glutamate [12]): 4.23 nmol/mg/h
Epinephrine (Epinephrine): 5.32 ng/mL
IL-1 β (IL-1 β; After 2 months): 1.886 µg/mL
IL-1 β (IL-1 β; After 4 months): 1.923 µg/mL
IL-1 β (IL-1 β; After 6 months): 1.790 µg/mL
IL-1 β (IL-1 β; Initial): 2.098 µg/mL
TNF-1 α (TNF-α; After 2 months): 3.71 ng/mL
TNF-1 α (TNF-α; After 4 months): 3.85 ng/mL
TNF-1 α (TNF-α; After 6 months): 4.14 ng/mL
TNF-1 α (TNF-α; Initial): 4.82 ng/mL
DHA (DHA; After 2 months): 1.082 g/100 g of total fatty acid
DHA (DHA; After 4 months): 1.920 g/100 g of total fatty acid
DHA (DHA; After 6 months): 1.980 g/100 g of total fatty acid
DHA (DHA; Initial): 1.096 g/100 g of total fatty acid
Occipito frontalis muscle action potential (depression cases [13]; After 2 months): 41.75
Occipito frontalis muscle action potential (depression cases [13]; After 4 months): 42.82
Occipito frontalis muscle action potential (depression cases [13]; After 6 months): 40.86
Occipito frontalis muscle action potential (depression cases [13]; Initial): 4.378
Delta Wave (depression cases [14]; After 2 months): 0.94 Hz
Delta Wave (depression cases [14]; After 4 months): 1.06 Hz
Delta Wave (depression cases [14]; After 6 months): 1.02 Hz
Delta Wave (depression cases [14]; Initial): 0.68 Hz
Neuro-peptide-γ (Neuro-peptide-γ; After 2 months): 148.90 pg/mL
Neuro-peptide-γ (Neuro-peptide-γ; After 4 months): 151.89 pg/mL
Neuro-peptide-γ (Neuro-peptide-γ; After 6 months): 156.04 pg/mL
Neuro-peptide-γ (Neuro-peptide-γ; Initial): 129.68 pg/mL
Sleep Latency (depressive patients; After 6 months treatment): 14.98 min
Sleep period (depressive patients; After 6 months treatment): 438.35 min
Stage-I (Time in min) (depressive patients; After 6 months treatment): 162.98 min
Stage-II (Time in min) (depressive patients; After 6 months treatment): 46.22 min
Stage-III (Time in min) (depressive patients; After 6 months treatment): 15.82 min
Total Sleep (depressive patients; After 6 months treatment): 201.94 min
Sleep Latency (depressive patients; Before treatment): 13.62 min
Sleep period (depressive patients; Before treatment): 445.90 min
Stage-I (Time in min) (depressive patients; Before treatment): 179.32 min
Stage-II (Time in min) (depressive patients; Before treatment): 45.82 min
Stage-III (Time in min) (depressive patients; Before treatment): 18.22 min
Total Sleep (depressive patients; Before treatment): 234.98 min
